Measured values reported in ChEMBL document CHEMBL3885881, “DrugMatrix”.

Species on record: Rattus norvegicus
Assay: DrugMatrix - Regimen: Daily Repeat
Type: toxicity, organism-based, Sprague-Dawley
Parameters: regimen Daily Repeat, gender Male, age 6-8 weeks
Settings: in vivo, po, route oral GAVAGE, vehicle 100 % WATER; for ABSOLUTE BASOPHIL / ABSOLUTE EOSINOPHIL / ABSOLUTE LYMPHOCYTE / ABSOLUTE MONOCYTE / ABSOLUTE SEGMENTED NEUTROPHIL / BASOPHIL / EOSINOPHIL / ERYTHROCYTE COUNT / HEMATOCRIT / HEMOGLOBIN / LEUKOCYTE COUNT / LYMPHOCYTE / MEAN CORPUSCULAR HEMOGLOBIN / MEAN CORPUSCULAR HEMOGLOBIN CONCENTRATION / MEAN CORPUSCULAR VOLUME / MONOCYTE / NEUTROPHIL / NUCLEATED RED BLOOD CELLS / PLATELET COUNT: tissue Blood; for ALANINE AMINOTRANSFERASE / ALBUMIN / ALKALINE PHOSPHATASE / ASPARTATE AMINOTRANSFERASE / BLOOD UREA NITROGEN / CARBON DIOXIDE / CHLORIDE / CHOLESTEROL / CREATINE PHOSPHOKINASE / CREATININE / GLUCOSE / LACTATE DEHYDROGENASE / LIPASE / PHOSPHORUS / POTASSIUM / SODIUM / TOTAL BILIRUBIN / TOTAL PROTEIN / URIC ACID: tissue Plasma
[1] = 0 mg/kg, 72 h, dose level Control, time 3 day
[2] = 0 mg/kg, 120 h, dose level Control, time 5 day
[3] = 58 mg/kg, 72 h, dose level Low, time 3 day

Cc1cn([C@H]2C=C[C@@H](CO)O2)c(=O)[nH]c1=O [STAVUDINE]
ABSOLUTE BASOPHIL [1]: 0 CELLS/uL
ABSOLUTE EOSINOPHIL [1]: 0 CELLS/uL
ABSOLUTE LYMPHOCYTE [1]: 8482.5 CELLS/uL
ABSOLUTE MONOCYTE [1]: 63.83 CELLS/uL
ABSOLUTE SEGMENTED NEUTROPHIL [1]: 887 CELLS/uL
BASOPHIL [1]: 0%
EOSINOPHIL [1]: 0%
ERYTHROCYTE COUNT [1]: 5.49 x10E6/uL
HEMATOCRIT [1]: 34.5%
HEMOGLOBIN [1]: 13.33 G/DL
LEUKOCYTE COUNT [1]: 9.43 x10E3/uL
LYMPHOCYTE [1]: 90.17%
MEAN CORPUSCULAR HEMOGLOBIN [1]: 24.3 pg
MEAN CORPUSCULAR HEMOGLOBIN CONCENTRATION [1]: 38.63 G/DL
MEAN CORPUSCULAR VOLUME [1]: 62.88 fL
MONOCYTE [1]: 0.67%
NEUTROPHIL [1]: 9.17%
NUCLEATED RED BLOOD CELLS [1]: 0.67 /100WBC
PLATELET COUNT [1]: 1022.83 x10E3/uL
ALANINE AMINOTRANSFERASE [1]: 50.5 u/L
ALBUMIN [1]: 4.08 G/DL
ALKALINE PHOSPHATASE [1]: 368.33 u/L
ASPARTATE AMINOTRANSFERASE [1]: 87.5 u/L
BLOOD UREA NITROGEN [1]: 12.83 mg/dL
CARBON DIOXIDE [1]: 32.83 mmol/L
CHLORIDE [1]: 99.67 MEQ/L
CHOLESTEROL [1]: 79.67 mg/dL
CREATINE PHOSPHOKINASE [1]: 585 u/L
CREATININE [1]: 0.22 mg/dL
GLUCOSE [1]: 135.67 mg/dL
LACTATE DEHYDROGENASE [1]: 171 u/L
LIPASE [1]: 9.5 u/L
PHOSPHORUS [1]: 11.18 mg/dL
POTASSIUM [1]: 6.25 MEQ/L
SODIUM [1]: 144.87 MEQ/L
TOTAL BILIRUBIN [1]: 0.2 mg/dL
TOTAL PROTEIN [1]: 6.08 G/DL
URIC ACID [1]: 0.65 mg/dL
ABSOLUTE BASOPHIL [2]: 0 CELLS/uL
ABSOLUTE EOSINOPHIL [2]: 14.5 CELLS/uL
ABSOLUTE LYMPHOCYTE [2]: 7596.17 CELLS/uL
ABSOLUTE MONOCYTE [2]: 69.67 CELLS/uL
ABSOLUTE SEGMENTED NEUTROPHIL [2]: 503 CELLS/uL
BASOPHIL [2]: 0%
EOSINOPHIL [2]: 0.17%
ERYTHROCYTE COUNT [2]: 5.49 x10E6/uL
HEMATOCRIT [2]: 34.72%
HEMOGLOBIN [2]: 13.47 G/DL
LEUKOCYTE COUNT [2]: 8.18 x10E3/uL
LYMPHOCYTE [2]: 92.17%
MEAN CORPUSCULAR HEMOGLOBIN [2]: 24.57 pg
MEAN CORPUSCULAR HEMOGLOBIN CONCENTRATION [2]: 38.82 G/DL
MEAN CORPUSCULAR VOLUME [2]: 63.3 fL
MONOCYTE [2]: 1%
NEUTROPHIL [2]: 6.67%
NUCLEATED RED BLOOD CELLS [2]: 0 /100WBC
PLATELET COUNT [2]: 1141 x10E3/uL
ALANINE AMINOTRANSFERASE [2]: 48.33 u/L
ALBUMIN [2]: 4.07 G/DL
ALKALINE PHOSPHATASE [2]: 395.67 u/L
ASPARTATE AMINOTRANSFERASE [2]: 85.67 u/L
BLOOD UREA NITROGEN [2]: 15.83 mg/dL
CARBON DIOXIDE [2]: 31.33 mmol/L
CHLORIDE [2]: 100.83 MEQ/L
CHOLESTEROL [2]: 62.33 mg/dL
CREATINE PHOSPHOKINASE [2]: 248.33 u/L
CREATININE [2]: 0.2 mg/dL
GLUCOSE [2]: 135.67 mg/dL
LACTATE DEHYDROGENASE [2]: 141.33 u/L
LIPASE [2]: 9.5 u/L
PHOSPHORUS [2]: 10.73 mg/dL
POTASSIUM [2]: 6.07 MEQ/L
SODIUM [2]: 145.35 MEQ/L
TOTAL BILIRUBIN [2]: 0.22 mg/dL
TOTAL PROTEIN [2]: 6.12 G/DL
URIC ACID [2]: 0.63 mg/dL
ABSOLUTE BASOPHIL [3]: 0 CELLS/uL
ABSOLUTE EOSINOPHIL [3]: 22.67 CELLS/uL
ABSOLUTE LYMPHOCYTE [3]: 7881 CELLS/uL
ABSOLUTE MONOCYTE [3]: 172.33 CELLS/uL
ABSOLUTE SEGMENTED NEUTROPHIL [3]: 1024 CELLS/uL
BASOPHIL [3]: 0%
EOSINOPHIL [3]: 0.33%
ERYTHROCYTE COUNT [3]: 5.09 x10E6/uL
HEMATOCRIT [3]: 32.43%
HEMOGLOBIN [3]: 12.77 G/DL
LEUKOCYTE COUNT [3]: 9.1 x10E3/uL
LYMPHOCYTE [3]: 86.67%
MEAN CORPUSCULAR HEMOGLOBIN [3]: 25.1 pg
MEAN CORPUSCULAR HEMOGLOBIN CONCENTRATION [3]: 39.37 G/DL
MEAN CORPUSCULAR VOLUME [3]: 63.77 fL
MONOCYTE [3]: 2%
NEUTROPHIL [3]: 11%
NUCLEATED RED BLOOD CELLS [3]: 1 /100WBC
PLATELET COUNT [3]: 1073 x10E3/uL
ALANINE AMINOTRANSFERASE [3]: 58.67 u/L
ALBUMIN [3]: 4.17 G/DL
ALKALINE PHOSPHATASE [3]: 410.33 u/L
ASPARTATE AMINOTRANSFERASE [3]: 82.67 u/L
BLOOD UREA NITROGEN [3]: 12 mg/dL
CARBON DIOXIDE [3]: 33 mmol/L
CHLORIDE [3]: 99 MEQ/L
CHOLESTEROL [3]: 75 mg/dL
CREATINE PHOSPHOKINASE [3]: 267 u/L
CREATININE [3]: 0.33 mg/dL
GLUCOSE [3]: 133.33 mg/dL
LACTATE DEHYDROGENASE [3]: 130.33 u/L
LIPASE [3]: 10 u/L
PHOSPHORUS [3]: 11.33 mg/dL
POTASSIUM [3]: 6.27 MEQ/L
SODIUM [3]: 145.07 MEQ/L
TOTAL BILIRUBIN [3]: 0.23 mg/dL
TOTAL PROTEIN [3]: 6 G/DL
URIC ACID [3]: 0.77 mg/dL
